Where “and” joins values, the source holds several entries; their conditions need not be identical. Identical values can stand only once.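 In this assay, cells in 96-well plates receive the compound at five concentrations for 48 hours. Endpoints are linearly interpolated between the surrounding concentrations. TGI marks complete inhibition of growth.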
Key:
Test in all cases: DTP human tumour cell line panel, 48 h
OVCAR-4 ovarian = test system: OVCAR-4 ovarian
LXFL 529 NSCLC = test system: LXFL 529 NSCLC
SK-OV-3 ovarian = test system: SK-OV-3 ovarian
HOP-62 NSCLC = test system: HOP-62 NSCLC
SNB-19 CNS = test system: SNB-19 CNS
KM12 colon = test system: KM12 colon
NCI-H460 lung = test system: NCI-H460 lung
SK-MEL-28 melanoma = test system: SK-MEL-28 melanoma
MALME-3M melanoma = test system: MALME-3M melanoma
NCI-H23 lung = test system: NCI-H23 lung
UACC-257 melanoma = test system: UACC-257 melanoma
HCT-116 colon = test system: HCT-116 colon
HCC-2998 colon = test system: HCC-2998 colon
SK-MEL-2 melanoma = test system: SK-MEL-2 melanoma
OVCAR-8 ovarian = test system: OVCAR-8 ovarian
M14 melanoma = test system: M14 melanoma
HL-60(TB) leukemia = test system: HL-60(TB) leukemia
OVCAR-5 ovarian = test system: OVCAR-5 ovarian
COLO 205 colon = test system: COLO 205 colon
DU-145 prostate = test system: DU-145 prostate

| SMILES | TGI (OVCAR-4 ovarian) | TGI (LXFL 529 NSCLC) | TGI (SK-OV-3 ovarian) | TGI (HOP-62 NSCLC) | TGI (SNB-19 CNS) | TGI (KM12 colon) | TGI (NCI-H460 lung) | TGI (SK-MEL-28 melanoma) | TGI (MALME-3M melanoma) | TGI (NCI-H23 lung) | TGI (UACC-257 melanoma) | TGI (HCT-116 colon) | TGI (HCC-2998 colon) | TGI (SK-MEL-2 melanoma) | TGI (OVCAR-8 ovarian) | TGI (M14 melanoma) | TGI (HL-60(TB) leukemia) | TGI (OVCAR-5 ovarian) | TGI (COLO 205 colon) | TGI (DU-145 prostate) |
| --- | --- | --- | --- | --- | --- | --- | --- | --- | --- | --- | --- | --- | --- | --- | --- | --- | --- | --- | --- | --- |
| COc1ccc(/C=C(\C(C)=O)C(=O)Nc2ccccc2)cc1 | > 100 µM | > 100 µM | > 100 µM | > 100 µM | > 100 µM | > 100 µM | > 100 µM | > 100 µM | > 100 µM | > 100 µM | > 100 µM | > 100 µM | > 100 µM | > 100 µM | > 100 µM | > 100 µM | > 100 µM | > 100 µM |  |  |
| C=CN1C(=O)[C@H](Oc2ccccc2)[C@@H]1c1ccccc1 |  | > 100 µM | 78.8 µM | 92.2 µM | > 100 µM | > 100 µM | > 100 µM | > 100 µM | > 100 µM | 60 µM | > 100 µM | > 100 µM | > 100 µM | > 100 µM | 83.6 µM | > 100 µM |  | > 100 µM |  |  |
| COc1ccc(OC)c(/C=C(/C#N)c2ccccc2)c1 | 81.5 µM | > 100 µM | > 100 µM | > 100 µM | > 100 µM | > 100 µM | > 100 µM | > 100 µM | > 100 µM | > 100 µM |  | > 100 µM |  | 54.7 µM | > 100 µM | > 100 µM | 19.6 µM | > 100 µM | > 100 µM |  |
| O=C(N(O)c1ccccc1Cl)C(O)(c1ccccc1)c1ccccc1 | > 100 µM |  | > 100 µM | > 100 µM | > 100 µM | > 100 µM | > 100 µM | > 100 µM | > 100 µM | > 100 µM | > 100 µM | > 100 µM | > 100 µM | > 100 µM | > 100 µM | > 100 µM | 64.7 µM | > 100 µM | > 100 µM | > 100 µM |
| O=C(NNC(=O)c1ccccc1O)c1cccc(Br)c1 | > 100 µM |  | > 100 µM | > 100 µM | > 100 µM | > 100 µM | > 100 µM | > 100 µM | > 100 µM | > 100 µM | > 100 µM | > 100 µM | > 100 µM | > 100 µM | > 100 µM | > 100 µM | > 100 µM | > 100 µM | > 100 µM | > 100 µM |
| COC1(OC)CCCc2c1no[n+]2[O-] | > 100 µM |  | > 100 µM | > 100 µM | > 100 µM | > 100 µM | > 100 µM | > 100 µM | > 100 µM | > 100 µM | > 100 µM | > 100 µM | > 100 µM | > 100 µM | > 100 µM | > 100 µM | > 100 µM | > 100 µM | > 100 µM | > 100 µM |
| O=C1NC(N/N=C\C(O)C(O)C(O)C(O)CO)=N/C1=C/c1ccc(Cl)cc1 (stereo not given) | > 100 µM and 50.7 µM |  | > 100 µM | > 100 µM | > 100 µM | > 100 µM | > 100 µM | > 100 µM | > 100 µM | > 100 µM | > 100 µM | > 100 µM | > 100 µM | > 100 µM | > 100 µM | > 100 µM | > 100 µM | > 100 µM | > 100 µM | > 100 µM |
| COc1cccc2nc3c(C(=O)NCCN(C)C)cccc3cc12 | 4.8 µM |  | 4.94 µM | 7.1 µM | 15.9 µM | 13.6 µM | 4.44 µM | 9.85 µM | 4.4 µM | 6.05 µM | 5.01 µM | 14.9 µM | 12.3 µM | 12.7 µM | 3.07 µM | 4.37 µM | 4.48 µM | 6.5 µM | 2.55 µM | 14.4 µM |
| CS(=O)(=O)c1ccc(-c2cc(-c3ccc(S(C)(=O)=O)cc3)[n+](-c3cc(-c4ccccc4)c([O-])c(-c4ccccc4)c3)c(-c3ccc(S(C)(=O)=O)cc3)c2)cc1 | > 100 µM | > 100 µM |  | > 100 µM | > 100 µM | > 100 µM | > 100 µM | > 100 µM | > 100 µM | > 100 µM | > 100 µM | > 100 µM | > 100 µM | > 100 µM | > 100 µM | > 100 µM |  | > 100 µM | > 100 µM |  |
| COc1ccc(C(C#N)NNC(=O)Cc2ccccc2)cc1OC (stereo not given) | > 100 µM | > 100 µM | > 100 µM | > 100 µM |  | > 100 µM | > 100 µM | > 100 µM | > 100 µM | > 100 µM | > 100 µM | > 100 µM |  | > 100 µM | > 100 µM | > 100 µM | > 100 µM | > 100 µM | > 100 µM |  |

— PubChem BioAssay (NCI)
